Measurements reported in paper PMC10247784, “Physiological activation of human and mouse bitter taste receptors by bile acids” (Communications Biology, 2023).
“And” between values parts separate entries of the source, which are not always exact repeats. Equal entries are not always repeated.

Molecular target: T1, human TAS2R14 (Homo sapiens, UniProt Q9NYV8)
T1 construct: expressed in transfected cells; host or cells: HEK293T-Gα16gust44
T1 sequence (Q9NYV8 1-317): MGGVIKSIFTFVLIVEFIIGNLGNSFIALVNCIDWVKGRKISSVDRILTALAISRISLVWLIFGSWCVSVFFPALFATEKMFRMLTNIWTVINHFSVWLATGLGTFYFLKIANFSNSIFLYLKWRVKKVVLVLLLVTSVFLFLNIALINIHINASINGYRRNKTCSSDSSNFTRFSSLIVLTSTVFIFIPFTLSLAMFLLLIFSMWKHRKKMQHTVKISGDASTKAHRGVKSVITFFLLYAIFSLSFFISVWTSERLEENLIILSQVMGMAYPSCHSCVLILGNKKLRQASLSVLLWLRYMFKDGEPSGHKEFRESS
Test: Calcium imaging assay (FLIPR), HEK293T-Gα16gust44 cells transfected with human TAS2R14
Type: cell-based
Conditions: for RLU: TAS2R14 trace
Protocol: This set of bile acids was chosen because of their commercial availability in high purities, their diversity within the class of bile acids and their previous detection and quantitation in human blood. Stock solutions were prepared in DMSO.
As basal growth medium for the HEK293T-Gα16gust44 cell line[17],[59] served Dulbecco’s modified eagle medium (DMEM) (Thermo Fisher Scientific, Darmstadt, Germany) supplemented with 10 % fetal bovine serum (Sigma-Aldrich, Steinheim, Germany), 2 mM L-glutamine (Sigma-Aldrich, Steinheim, Germany), 100 units/ml penicillin (Sigma Aldrich, Steinheim, Germany) and 100 µg/ml streptomycin (Sigma Aldrich, Steinheim, Germany). Growth conditions were 37 °C, 5 % CO2 and saturated air-humidity[60].
HEK293T-Gα16gust44 cells were seeded on poly-D-lysine (10 µg/ml) coated 96-well plates to reach a confluence of 40-60 % the next day. For transient transfection 150 ng of plasmid DNA containing the receptor of interest and 0.3 µl lipofectamine 2000 (Thermo Fisher Scientific, Darmstadt, Germany) per well were used and transfection took place according to the manual of lipofectamine 2000. […] The empty vector DNA (mock) was transfected as negative control[14],[41].
Cells were loaded using the calcium-sensitive fluorescent dye Fluo-4-AM (Abcam, Cambridge, Great Britain) in the presence of 2.5 mM probenecid (Sigma-Aldrich, Steinheim, Germany) the day after transfection[13],[41]. 1 h after loading, cells were washed with C1 buffer using a BioTek Cell Washer, incubated in the dark for half an hour and washed again. For automated agonist application and measurement of fluorescence changes, a FLIPR^TETRA device (Molecular Devices, San José, United States) was used. Viability of cells was tested by application of 100 nM Somatostatin 14 (Bachem, Bubendorf, Switzerland)[42].
Measured data were negative control corrected by subtracting the signal of the mock-transfected cells and exported to Microsoft Excel using the FLIPR software ScreenWorks 4.2. In Microsoft Excel software, standardization of maximum fluorescence intensities to the basal fluorescence and normalization to the buffer-only control was done to calculate the relative fluorescence changes (ΔF/F).
Initial screening experiments performed in duplicate wells were confirmed by at least one replication and representative traces were selected for display. All dose-response relationships were determined by three independent experiments (biological replicates) performed in duplicates (technical replicates). Threshold concentrations, defined as lowest substance concentrations leading to statistically significant elevated fluorescence changes in receptor-transfected cells compared with empty vector-transfected cells, were determined using SigmaPlot with Student’s t-test to evaluate statistical significance (p < 0.01).

Compound: C[C@H](CCC(=O)NCCS(=O)(=O)O)[C@H]1CC[C@H]2[C@@H]3CC[C@@H]4C[C@H](O)CC[C@]4(C)[C@H]3CC[C@]12C [Taurolithocholic Acid, taurolithocholic acid]
- Efficacy = maximal amplitude (ΔF/F) (TAS2R14, bile acids, mean): 0.07188
- Efficacy (maximal amplitude ΔF/F), individual data points (TAS2R14, bile acids, single replicates, listed as TLCA): 0.06981 and 0.08988 and 0.05106
- RLU (Time (s) 0): 0 RLU
- RLU (Time (s) 2 (Taurocholic Acid 2.016)): 5.076 RLU
- RLU (Time (s) 4 (Taurocholic Acid 4.016)): -5.108 RLU
- RLU (Time (s) 6 (Taurocholic Acid 6.016)): -10.1397 RLU
- RLU (Time (s) 8 (Taurocholic Acid 8.016)): -25.9369 RLU
- RLU (Time (s) 12 (Taurocholic Acid 12.016)): -47.2431 RLU
- RLU (Time (s) 14 (Taurocholic Acid 14.016)): -37.8259 RLU
- RLU (Time (s) 16 (Taurocholic Acid 16.016)): -67.1139 RLU
- RLU (Time (s) 18 (Taurocholic Acid 18.016)): -63.8827 RLU
- RLU (Time (s) 18.797 (Chenodeoxycholic Acid 18.765)): -68.311 RLU
- RLU (Time (s) 20.797 (Chenodeoxycholic Acid 20.781)): -66.196 RLU
- RLU (Time (s) 22.797 (Chenodeoxycholic Acid 22.781)): -50.0226 RLU
- RLU (Time (s) 24.797 (Chenodeoxycholic Acid 24.781)): -48.2767 RLU
- RLU (Time (s) 26.797 (Chenodeoxycholic Acid 26.781)): -41.6616 RLU
- RLU (Time (s) 28.797 (Chenodeoxycholic Acid 28.781)): -45.6719 RLU
- RLU (Time (s) 30.797 (Chenodeoxycholic Acid 30.781)): -13.6241 RLU
- RLU (Time (s) 32.797 (Chenodeoxycholic Acid 32.781)): 14.5625 RLU
- RLU (Time (s) 34.797 (Chenodeoxycholic Acid 34.781)): 34.5332 RLU
- RLU (Time (s) 36.797 (Chenodeoxycholic Acid 36.781)): 37.8124 RLU
- RLU (Time (s) 38.797 (Chenodeoxycholic Acid 38.781)): 50.8625 RLU
- RLU (Time (s) 40.797 (Chenodeoxycholic Acid 40.781)): 58.2474 RLU
- RLU (Time (s) 42.797 (Chenodeoxycholic Acid 42.781)): 67.9279 RLU
- RLU (Time (s) 44.797 (Chenodeoxycholic Acid 44.781)): 76.8016 RLU
- RLU (Time (s) 46.797 (Chenodeoxycholic Acid 46.781)): 99.8168 RLU
- RLU (Time (s) 48.797 (Chenodeoxycholic Acid 48.781)): 113.593 RLU
- RLU (Time (s) 50.797 (Chenodeoxycholic Acid 50.781)): 125.702 RLU
- RLU (Time (s) 52.797 (Chenodeoxycholic Acid 52.781)): 143.488 RLU
- RLU (Time (s) 54.797 (Chenodeoxycholic Acid 54.781)): 148.335 RLU
- RLU (Time (s) 56.797 (Chenodeoxycholic Acid 56.781)): 163.155 RLU
- RLU (Time (s) 58.797 (Chenodeoxycholic Acid 58.781)): 176.389 RLU
- RLU (Time (s) 60.797 (Chenodeoxycholic Acid 60.781)): 197.723 RLU
- RLU (Time (s) 62.797 (Chenodeoxycholic Acid 62.781)): 213.291 RLU
- RLU (Time (s) 64.797 (Chenodeoxycholic Acid 64.781)): 213.968 RLU
- RLU (Time (s) 66.797 (Chenodeoxycholic Acid 66.781)): 225.512 RLU
- RLU (Time (s) 68.797 (Chenodeoxycholic Acid 68.781)): 237.861 RLU
- RLU (Time (s) 70.797 (Chenodeoxycholic Acid 70.781)): 234.615 RLU
- RLU (Time (s) 72.797 (Chenodeoxycholic Acid 72.781)): 231.58 RLU
- RLU (Time (s) 74.797 (Chenodeoxycholic Acid 74.781)): 268.946 RLU
- RLU (Time (s) 76.797 (Chenodeoxycholic Acid 76.781)): 267.933 RLU
- RLU (Time (s) 78.797 (Chenodeoxycholic Acid 78.781)): 291.733 RLU
- RLU (Time (s) 80.797 (Chenodeoxycholic Acid 80.781)): 290.533 RLU
- RLU (Time (s) 82.797 (Chenodeoxycholic Acid 82.781)): 307.412 RLU
- RLU (Time (s) 84.797 (Chenodeoxycholic Acid 84.781)): 297.633 RLU
- RLU (Time (s) 86.797 (Chenodeoxycholic Acid 86.781)): 303.737 RLU
- RLU (Time (s) 88.797 (Chenodeoxycholic Acid 88.781)): 299.661 RLU
- RLU (Time (s) 90.797 (Chenodeoxycholic Acid 90.781)): 303.944 RLU
- RLU (Time (s) 92.797 (Chenodeoxycholic Acid 92.781)): 328.349 RLU
- RLU (Time (s) 94.797 (Chenodeoxycholic Acid 94.781)): 307.307 RLU
- RLU (Time (s) 96.797 (Chenodeoxycholic Acid 96.781)): 314.559 RLU
- RLU (Time (s) 98.797 (Chenodeoxycholic Acid 98.781)): 326.967 RLU
- RLU (Time (s) 100.797 (Chenodeoxycholic Acid 100.781)): 302.894 RLU
- RLU (Time (s) 102.797 (Chenodeoxycholic Acid 102.781)): 324.498 RLU
- RLU (Time (s) 104.797 (Chenodeoxycholic Acid 104.781)): 347.898 RLU
- RLU (Time (s) 106.797 (Chenodeoxycholic Acid 106.781)): 338.946 RLU
- RLU (Time (s) 108.797 (Chenodeoxycholic Acid 108.781)): 361.614 RLU
- RLU (Time (s) 110.797 (Chenodeoxycholic Acid 110.781)): 335.334 RLU
- RLU (Time (s) 112.797 (Chenodeoxycholic Acid 112.781)): 367.933 RLU
- RLU (Time (s) 114.797 (Chenodeoxycholic Acid 114.781)): 388.996 RLU
- RLU (Time (s) 116.797 (Chenodeoxycholic Acid 116.781)): 373.414 RLU
- RLU (Time (s) 118.797 (Chenodeoxycholic Acid 118.781)): 374.133 RLU
- RLU (Time (s) 120.797 (Chenodeoxycholic Acid 120.781)): 378.298 RLU
- RLU (Time (s) 122.797 (Chenodeoxycholic Acid 122.781)): 394.755 RLU
- RLU (Time (s) 124.797 (Chenodeoxycholic Acid 124.781)): 385.131 RLU
- RLU (Time (s) 126.797 (Chenodeoxycholic Acid 126.781)): 394.257 RLU
- RLU (Time (s) 128.797 (Chenodeoxycholic Acid 128.781)): 394.724 RLU
- RLU (Time (s) 130.797 (Chenodeoxycholic Acid 130.781)): 379.935 RLU
- RLU (Time (s) 132.797 (Chenodeoxycholic Acid 132.781)): 394.817 RLU
- RLU (Time (s) 134.797 (Chenodeoxycholic Acid 134.781)): 375.334 RLU
- RLU (Time (s) 136.797 (Chenodeoxycholic Acid 136.781)): 397.788 RLU
- RLU (Time (s) 137.562 (Taurocholic Acid 137.563, Chenodeoxycholic Acid 137.546)): 382.953 RLU
- RLU (Time (s) 143.578 (Taurocholic Acid 143.563, Chenodeoxycholic Acid 143.546)): 394.002 RLU
- RLU (Time (s) 149.578 (Taurocholic Acid 149.563, Chenodeoxycholic Acid 149.546)): 363.524 RLU
- RLU (Time (s) 155.578 (Taurocholic Acid 155.563, Chenodeoxycholic Acid 155.546)): 370.686 RLU
- RLU (Time (s) 161.578 (Taurocholic Acid 161.563, Chenodeoxycholic Acid 161.546)): 390.532 RLU
- RLU (Time (s) 167.578 (Taurocholic Acid 167.563, Chenodeoxycholic Acid 167.546)): 378.911 RLU
- RLU (Time (s) 173.578 (Taurocholic Acid 173.563, Chenodeoxycholic Acid 173.546)): 356.99 RLU
- RLU (Time (s) 179.578 (Taurocholic Acid 179.563, Chenodeoxycholic Acid 179.546)): 351.344 RLU
- RLU (Time (s) 191.578 (Taurocholic Acid 191.563, Chenodeoxycholic Acid 191.546)): 317.716 RLU
- RLU (Time (s) 197.578 (Taurocholic Acid 197.563, Chenodeoxycholic Acid 197.546)): 291.899 RLU
- RLU (Time (s) 209.578 (Taurocholic Acid 209.563, Chenodeoxycholic Acid 209.546)): 252.636 RLU
- RLU (Time (s) 221.578 (Taurocholic Acid 221.563, Chenodeoxycholic Acid 221.546)): 195.665 RLU
- RLU (Time (s) 233.578 (Taurocholic Acid 233.563, Chenodeoxycholic Acid 233.546)): 155.879 RLU
- RLU (Time (s) 239.578 (Taurocholic Acid 239.563, Chenodeoxycholic Acid 239.546)): 121.06 RLU
- RLU (Time (s) 245.578 (Taurocholic Acid 245.563, Chenodeoxycholic Acid 245.546)): 124.983 RLU
- RLU (Time (s) 293.578 (Taurocholic Acid 293.563, Chenodeoxycholic Acid 293.546)): 26.9674 RLU
- RLU (Time (s) 299.578 (Taurocholic Acid 299.563, Chenodeoxycholic Acid 299.546)): 2.882 RLU
- RLU (Time (s) 305.578 (Taurocholic Acid 305.563, Chenodeoxycholic Acid 305.546)): 10.8603 RLU
- RLU (Time (s) 311.578 (Taurocholic Acid 311.563, Chenodeoxycholic Acid 311.546)): -14.8461 RLU
- RLU (Time (s) 317.578 (Taurocholic Acid 317.563, Chenodeoxycholic Acid 317.546)): -4.053 RLU
- RLU (Time (s) 323.578 (Taurocholic Acid 323.563, Chenodeoxycholic Acid 323.546)): -64.2935 RLU
- RLU (Time (s) 329.578 (Taurocholic Acid 329.563, Chenodeoxycholic Acid 329.546)): -47.603 RLU
- RLU (Time (s) 335.578 (Taurocholic Acid 335.563, Chenodeoxycholic Acid 335.546)): -52.8312 RLU
- RLU (Time (s) 341.578 (Taurocholic Acid 341.563, Chenodeoxycholic Acid 341.546)): -81.682 RLU
- RLU (Time (s) 347.578 (Taurocholic Acid 347.563, Chenodeoxycholic Acid 347.546)): -84.764 RLU
- RLU (Time (s) 353.578 (Taurocholic Acid 353.563, Chenodeoxycholic Acid 353.546)): -78.8648 RLU
- RLU (Time (s) 359.578 (Taurocholic Acid 359.563, Chenodeoxycholic Acid 359.546)): -73.3268 RLU
- Activation threshold concentration TAS2R14 (lowest concentration with significantly increased fluorescence vs empty vector (p < 0.01)): 0.3 µM
